Here are results for 23 molecules from US9808003B2, “Herbicidally active 2-(substituted-phenyl)-cyclopentane-1,3-dione compounds and derivatives thereof” (Syngenta Limited, priority 2013, dated 2017).

Test in all cases: Test 1A glasshouse assay, post-emergence herbicidal activity
Holding throughout (type): in vivo

Assay [1] concerns Echinochloa crus-galli (ECHCG). Conditions: Echinochloa crus-galli, 312 h, application rate 250 g/ha, 13 days after application, visual (100%=total damage; 0%=no damage), read-out: Post-emergence Herbicidal Activity (% Phytotoxicity) ECHCG. The essentials:
(§1)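 Pots sown in standard soil; plants grown 8 days in glasshouse (24/16 °C day/night, 14 h light, 65% humidity), then sprayed with compound formulated in acetone/water (50:50) with 0.5% Tween 20. Regrown under same conditions, watered twice daily; visual % phytotoxicity scored 13 days after application (0 = none, 100 = total damage).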

The test system of assay [2] is Lolium perenne (LOLPE). Conditions: Lolium perenne, 312 h, application rate 250 g/ha, 13 days after application, visual (100%=total damage; 0%=no damage), read-out: Post-emergence Herbicidal Activity (% Phytotoxicity) LOLPE. In short, it runs like this:
as §1

The test system of assay [3] is Avena fatua (AVEFA). Conditions: Avena fatua, 312 h, application rate 250 g/ha, 13 days after application, visual (100%=total damage; 0%=no damage), read-out: Post-emergence Herbicidal Activity (% Phytotoxicity) AVEFA. In short, it runs like this:
as §1

Assay [4] deals with Alopecurus myosuroides (ALOMY). Conditions: Alopecurus myosuroides, 312 h, application rate 250 g/ha, 13 days after application, visual (100%=total damage; 0%=no damage), read-out: Post-emergence Herbicidal Activity (% Phytotoxicity) ALOMY. In short, it runs like this: as §1

`CC#Cc1cc(C)c(C2C(=O)CC(CCNC(=O)c3ccc(F)cc3)C2=O)c(C)c1` (centres unmarked) [Compound A116]: the pest or weed control at 250 g/ha in assay [1] turned out to be 100%; in assay [2], 100%; in assay [3], 100%; in assay [4], 90%.

On to `Cc1cc(-c2ccc(F)cn2)cc(C)c1C1C(=O)CC(CCNC(=O)c2ccccn2)C1=O` (centres unmarked) [Compound A117], for which the pest or weed control at 250 g/ha in assay [1], in assay [2], in assay [3] and in assay [4] was 100% in each case.

As for `Cc1cc(C)c(C2C(=O)CC(CCNC(=O)c3ccc(Cl)cn3)C2=O)c(C)c1` (centres unmarked) [Compound A118], the pest or weed control at 250 g/ha in assay [1], in assay [2], in assay [3] and in assay [4] was 100% throughout.

Take `Cc1ccnc(C(=O)NCCC2CC(=O)C(c3c(C)cc(C)cc3C)C2=O)c1` (centres unmarked) [Compound A119]: the pest or weed control at 250 g/ha in assay [1] was found to be 100%; in assay [2] it was 90%; in assay [3], 90%; in assay [4], 100%.

Consider `Cc1cc(C)c(C2C(=O)CC(CCNC(=O)c3cc(Br)ccn3)C2=O)c(C)c1` (centres unmarked) [Compound A121], for which the pest or weed control at 250 g/ha turned out to be 100% in assay [1], 100% in assay [2], 90% in assay [3] and 90% in assay [4].

`COc1cc(C)c(C2C(=O)CC(CCNC(=O)c3ccccn3)C2=O)c(C)c1` (centres unmarked) [Compound A122]: the pest or weed control at 250 g/ha in assay [1] is 100%; in assay [2], 100%; in assay [3], 90%; in assay [4] it was 100%.

Consider `Cc1cccc(C)c1C1C(=O)CC(CCNC(=O)c2ccccn2)C1=O` (centres unmarked) [Compound A123], for which the pest or weed control at 250 g/ha in assay [1] stood at 90%; in assay [2] it was 100%; in assay [3], 100%; in assay [4] it was 100%.

Take `Cc1cc(Cl)cc(C)c1C1C(=O)CC(CCNC(=O)c2ccccn2)C1=O` (centres unmarked) [Compound A124]: the pest or weed control at 250 g/ha in assay [1], in assay [2], in assay [3] and in assay [4] was 100% each time.

In the case of `Cc1cc(Br)cc(C)c1C1C(=O)CC(CCNC(=O)c2ccccn2)C1=O` (centres unmarked) [Compound A125], the pest or weed control at 250 g/ha in assay [1], in assay [2], in assay [3] and in assay [4] was 100% each time.

For the molecule `Cc1cc(OCC(F)(F)F)cc(C)c1C1C(=O)CC(CCNC(=O)c2ccccn2)C1=O` (centres unmarked) [Compound A126, N-[2-[3-[2,6-dimethyl-4-(2,2,2-trifluoroethoxy)phenyl]-2,4-dioxo-cyclopentyl]ethyl]pyridine-2-carboxamide], the pest or weed control at 250 g/ha in assay [1], in assay [2], in assay [3] and in assay [4] was 100% in each case.

As for `Cc1cc(Oc2ncc(Cl)cc2F)cc(C)c1C1C(=O)CC(CCNC(=O)c2ccccn2)C1=O` (centres unmarked) [Compound A126A], the pest or weed control at 250 g/ha in assay [1], in assay [2], in assay [3] and in assay [4] was 90% each time.

`Cc1cc(Oc2ncc(C(F)(F)F)cc2Cl)cc(C)c1C1C(=O)CC(CCNC(=O)c2ccccn2)C1=O` (centres unmarked) [Compound A126B, N-[2-[3-[4-[[3-chloro-5-(trifluoromethyl)-2-pyridyl]oxy]-2,6-dimethyl-phenyl]-2,4-dioxo-cyclopentyl]ethyl]pyridine-2-carboxamide]: the pest or weed control at 250 g/ha in assay [1] was 100%; in assay [2], 90%; in assay [3], 90%; in assay [4] it was 90%.

For `Cc1cc(-n2cc(Cl)cn2)cc(C)c1C1C(=O)CC(CCNC(=O)c2ccc(F)cn2)C1=O` (centres unmarked) [Compound A129], the pest or weed control at 250 g/ha in assay [1], in assay [2], in assay [3] and in assay [4] was 100% each time.

As for `Cc1cccc(C(=O)NCCC2CC(=O)C(c3c(C)cc(-n4cc(Cl)cn4)cc3C)C2=O)n1` (centres unmarked) [Compound A130], the pest or weed control at 250 g/ha turned out to be 80% in assay [1], 80% in assay [2], 80% in assay [3] and 30% in assay [4].

In the case of `Cc1cc(-n2cc(Cl)cn2)cc(C)c1C1C(=O)CC(CCNC(=O)c2nc(Cl)ccc2Cl)C1=O` (centres unmarked) [Compound A131], the pest or weed control at 250 g/ha in assay [1], in assay [2], in assay [3] and in assay [4] was 100% each time.

For the molecule `Cc1cc(-n2cc(Cl)cn2)cc(C)c1C1C(=O)CC(CCNC(=O)c2cccc(Cl)n2)C1=O` (centres unmarked) [Compound A132], the pest or weed control at 250 g/ha in assay [1], in assay [2], in assay [3] and in assay [4] was 100% throughout.

For `Cc1cc(-n2cc(Cl)cn2)cc(C)c1C1C(=O)CC(CCNC(=O)c2ncccc2F)C1=O` (centres unmarked) [Compound A133], the pest or weed control at 250 g/ha was 100% in assay [1], 100% in assay [2], 90% in assay [3] and 100% in assay [4].

As to `Cc1cc(-n2cc(Cl)cn2)cc(C)c1C1C(=O)CC(CCNC(=O)c2cccc(Br)n2)C1=O` (centres unmarked) [Compound A134], the pest or weed control at 250 g/ha in assay [1], in assay [2], in assay [3] and in assay [4] was 100% each time.

`Cc1cc(-n2cc(Cl)cn2)cc(C)c1C1C(=O)CC(CCNC(=O)c2cccc(F)n2)C1=O` (centres unmarked) [Compound A135]: the pest or weed control at 250 g/ha in assay [1] worked out at 100%; in assay [2], 100%; in assay [3] it was 90%; in assay [4], 100%.

`Cc1cc(-n2cc(Cl)cn2)cc(C)c1C1C(=O)CC(CCNC(=O)c2ccc(Br)cn2)C1=O` (centres unmarked) [Compound A136]: the pest or weed control at 250 g/ha in assay [1] amounted to 100%; in assay [2], 100%; in assay [3], 90%; in assay [4], 100%.

As for `Cc1cc(-n2cc(Cl)cn2)cc(C)c1C1C(=O)CC(CCNC(=O)c2ccc(C#N)cn2)C1=O` (centres unmarked) [Compound A137], the pest or weed control at 250 g/ha in assay [1] turned out to be 100%; in assay [2] it was 80%; in assay [3], 70%; in assay [4] it was 80%.

Consider `Cc1cc(-n2cc(Cl)cn2)cc(C)c1C1C(=O)CC(CCNC(=O)c2cc(Cl)ccn2)C1=O` (centres unmarked) [Compound A138], for which the pest or weed control at 250 g/ha came out at 100% in assay [1], 100% in assay [2], 90% in assay [3] and 100% in assay [4].

With `Cc1cc(-n2cc(Cl)cn2)cc(C)c1C1C(=O)CC(CCNC(=O)c2cccc(C(F)(F)F)n2)C1=O` (centres unmarked) [Compound A139], the pest or weed control at 250 g/ha in assay [1] came out at 90%; in assay [2], 100%; in assay [3] it was 90%; in assay [4] it was 90%.
